According to patent US6737383B1, “Herbicidal oxadiazolidines” (priority 1999, dated 2004):

How the values were obtained:
wheat = assay: Test B pre/postemergence wheat; type: in vivo, Triticum aestivum; details: for Plant response rating, Wheat: Rate 250 g/ha
Procedure, shortened: (§1)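 Test chemicals in a non-phytotoxic solvent mixture with surfactant were sprayed preemergence onto planted seeds and postemergence onto plants 2 to 18 cm tall (1- to 4-leaf stage). After twelve to sixteen days in a greenhouse, injury was visually rated against untreated controls from 0 (no effect) to 10 (complete control).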

wild oat = assay: Test B pre/postemergence wild oat; type: in vivo, Avena fatua; details: for Plant response rating, Wild oats: Rate 250 g/ha
Procedure, shortened: as §1

velvetleaf = assay: Test B pre/postemergence velvetleaf; type: in vivo, Abutilon theophrasti; details: for Plant response rating, Velvetleaf: Rate 250 g/ha
Procedure, shortened: as §1

surinam grass = assay: Test B pre/postemergence surinam grass; type: in vivo, Brachiaria decumbens
Procedure, shortened: as §1

sugar beet = assay: Test B pre/postemergence sugar beet; type: in vivo, Beta vulgaris; details: for Plant response rating, Sugarbeets: Rate 250 g/ha
Procedure, shortened: as §1

corn = assay: Test B pre/postemergence corn; type: in vivo, Zea mays
Procedure, shortened: as §1

purple nutsedge = assay: Test B pre/postemergence purple nutsedge; type: in vivo, Cyperus rotundus
Procedure, shortened: as §1

pigweed = assay: Test B pre/postemergence pigweed; type: in vivo, Amaranthus retroflexus
Procedure, shortened: as §1

cocklebur = assay: Test B pre/postemergence cocklebur; type: in vivo, Xanthium strumarium
Procedure, shortened: as §1

rape = assay: Test B pre/postemergence rape; type: in vivo, Brassica napus
Procedure, shortened: as §1

bedstraw = assay: Test B pre/postemergence bedstraw; type: in vivo, Galium aparine
Procedure, shortened: as §1

soybean = assay: Test B pre/postemergence soybean; type: in vivo, Glycine max
Procedure, shortened: as §1

giant foxtail = assay: Test B pre/postemergence giant foxtail; type: in vivo, Setaria faberii
Procedure, shortened: as §1

morningglory = assay: Test B pre/postemergence morningglory; type: in vivo, Ipomoea hederacea
Procedure, shortened: as §1

blackgrass = assay: Test B pre/postemergence blackgrass; type: in vivo, Alopecurus myosuroides
Procedure, shortened: as §1

crabgrass = assay: Test B pre/postemergence crabgrass; type: in vivo, Digitaria sanguinalis
Procedure, shortened: as §1

[1] = Postemergence, Rate 125 g/ha, scale of 0 to 10 where 0 is no effect and 10 is complete control
[2] = Preemergence, Rate 31 g/ha, visual rating, scale 0 to 10 (0 no effect, 10 complete control)
[3] = Preemergence, Rate 62 g/ha, scale 0 to 10 (0 no effect, 10 complete control)
[4] = Preemergence, Rate 125 g/ha, 0 is no effect, 10 is complete control
[5] = Preemergence, scale of 0 to 10 where 0 is no effect and 10 is complete control
[6] = Rate 62 g/ha, Postemergence, scale of 0 to 10 where 0 is no effect and 10 is complete control
[7] = Postemergence, scale 0 to 10, 0 is no effect, 10 is complete control
[8] = Postemergence, Rate 62 g/ha, scale 0 to 10, 0 is no effect, 10 is complete control
[9] = Postemergence, Rate 250 g/ha, scale 0 to 10, 0 no effect, 10 complete control
[10] = Preemergence, Rate 125 g/ha, scale 0 to 10 (0 no effect, 10 complete control)
[11] = Preemergence, Rate 250 g/ha, scale of 0 to 10 where 0 is no effect and 10 is complete control
[12] = Rate 31 g/ha, Postemergence, scale 0 to 10
[13] = Rate 125 g/ha, Postemergence, scale 0 to 10, 0 no effect, 10 complete control
[14] = Rate 250 g/ha, Postemergence, scale 0 to 10, 0 is no effect, 10 is complete control

Cc1onc(-c2ccccc2)c1-n1c(=O)on(C(=O)N(c2ccc(F)cc2)C(C)C)c1=O [Compound 100]
0: Wheat plant response rating (wheat; [1]) | Wheat plant response rating (wheat; [2]) | Wheat plant response rating (wheat; [3]) | Wheat plant response rating (0 to 10 scale) (wheat; [4]) | Plant response rating, Wheat (wheat; [5]) | Wheat plant response rating (wheat; [6]) | Plant response rating, Wheat (wheat; [7]) | Wild oats plant response rating (wild oat; [1]) | Wild oats plant response rating (wild oat; [2]) | Wild oats plant response rating (wild oat; [3]) | Wild oats plant response rating (0 to 10 scale) (wild oat; [4]) | Plant response rating, Wild oats (wild oat; [5]) | Wild oats plant response rating (wild oat; [6]) | Plant response rating, Wild oats (wild oat; [7]) | Velvetleaf plant response rating (velvetleaf; [1]) | Velvetleaf plant response rating (velvetleaf; [2]) | Velvetleaf plant response rating (velvetleaf; [3]) | Velvetleaf plant response rating (0 to 10 scale) (velvetleaf; [4]) | Plant response rating, Velvetleaf (velvetleaf; [5]) | Velvetleaf plant response rating (velvetleaf; [6]) | Plant response rating, Velvetleaf (velvetleaf; [7]) | B. signalgrass plant response rating (surinam grass; [8]) | B. signalgrass plant response rating (surinam grass; [9]) | B. signalgrass plant response rating (surinam grass; [2]) | B. signalgrass plant response rating (surinam grass; [3]) | Plant response rating, B. signalgrass (surinam grass; [10]) | Plant response rating, B. signalgrass (surinam grass; [11]) | B. signalgrass plant response rating (surinam grass; [12]) | B. signalgrass plant response rating (surinam grass; [13]) | Sugarbeets plant response rating (sugar beet; [1]) | Sugarbeets plant response rating (sugar beet; [2]) | Sugarbeets plant response rating (sugar beet; [3]) | Sugarbeets plant response rating (0 to 10 scale) (sugar beet; [4]) | Plant response rating, Sugarbeets (sugar beet; [5]) | Sugarbeets plant response rating (sugar beet; [6]) | Plant response rating, Sugarbeets (sugar beet; [7]) | Corn plant response rating (corn; [1]) | Corn plant response rating (corn; [9]) | Corn plant response rating (corn; [2]) | Corn plant response rating (corn; [3]) | Plant response rating, Corn (corn; [10]) | Plant response rating, Corn (corn; [11]) | Corn plant response rating (corn; [12]) | Corn plant response rating (corn; [6]) | Nutsedge plant response rating (purple nutsedge; [1]) | Nutsedge plant response rating (purple nutsedge; [9]) | Nutsedge plant response rating (purple nutsedge; [2]) | Nutsedge plant response rating (purple nutsedge; [3]) | Plant response rating, Nutsedge (purple nutsedge; [10]) | Plant response rating, Nutsedge (purple nutsedge; [11]) | Nutsedge plant response rating (purple nutsedge; [12]) | Nutsedge plant response rating (purple nutsedge; [6]) | Redroot pigweed plant response rating (pigweed; [1]) | Redroot pigweed plant response rating (pigweed; [2]) | Redroot pigweed plant response rating (pigweed; [3]) | Plant response rating, Redroot pigweed (pigweed; [10]) | Plant response rating, Redroot pigweed (pigweed; [11]) | Redroot pigweed plant response rating (pigweed; [12]) | Redroot pigweed plant response rating (pigweed; [6]) | Plant response rating, Redroot pigweed (pigweed; [14]) | Cocklebur plant response rating (cocklebur; [1]) | Cocklebur plant response rating (cocklebur; [9]) | Cocklebur plant response rating (cocklebur; [2]) | Cocklebur plant response rating (cocklebur; [3]) | Plant response rating, Cocklebur (cocklebur; [10]) | Plant response rating, Cocklebur (cocklebur; [11]) | Cocklebur plant response rating (cocklebur; [12]) | Cocklebur plant response rating (cocklebur; [6]) | Rape plant response rating (rape; [1]) | Rape plant response rating (rape; [9]) | Rape plant response rating (rape; [2]) | Rape plant response rating (rape; [3]) | Plant response rating, Rape (rape; [10]) | Plant response rating, Rape (rape; [11]) | Rape plant response rating (rape; [12]) | Rape plant response rating (rape; [6]) | Bedstraw plant response rating (bedstraw; [8]) | Bedstraw plant response rating (bedstraw; [9]) | Bedstraw plant response rating (bedstraw; [3]) | Plant response rating, Bedstraw (bedstraw; [11]) | Bedstraw plant response rating (bedstraw; [12]) | Bedstraw plant response rating (bedstraw; [13]) | Soybean plant response rating (soybean; [1]) | Soybean plant response rating (soybean; [2]) | Soybean plant response rating (soybean; [3]) | Plant response rating, Soybean (soybean; [10]) | Plant response rating, Soybean (soybean; [11]) | Soybean plant response rating (soybean; [6]) | Plant response rating, Soybean (soybean; [14]) | Giant foxtail plant response rating (giant foxtail; [1]) | Giant foxtail plant response rating (giant foxtail; [9]) | Giant foxtail plant response rating (giant foxtail; [2]) | Giant foxtail plant response rating (giant foxtail; [3]) | Plant response rating, Giant foxtail (giant foxtail; [10]) | Plant response rating, Giant foxtail (giant foxtail; [11]) | Giant foxtail plant response rating (giant foxtail; [12]) | Giant foxtail plant response rating (giant foxtail; [6]) | Morningglory plant response rating (morningglory; [1]) | Morningglory plant response rating (morningglory; [9]) | Morningglory plant response rating (morningglory; [2]) | Morningglory plant response rating (morningglory; [3]) | Plant response rating, Morningglory (morningglory; [10]) | Plant response rating, Morningglory (morningglory; [11]) | Morningglory plant response rating (morningglory; [12]) | Morningglory plant response rating (morningglory; [6]) | Blackgrass plant response rating (blackgrass; [1]) | Blackgrass plant response rating (blackgrass; [9]) | Blackgrass plant response rating (blackgrass; [2]) | Blackgrass plant response rating (blackgrass; [3]) | Plant response rating, Blackgrass (blackgrass; [10]) | Plant response rating, Blackgrass (blackgrass; [11]) | Blackgrass plant response rating (blackgrass; [12]) | Blackgrass plant response rating (blackgrass; [6]) | Crabgrass plant response rating (crabgrass; [1]) | Crabgrass plant response rating (crabgrass; [9]) | Crabgrass plant response rating (crabgrass; [2]) | Crabgrass plant response rating (crabgrass; [3]) | Plant response rating, Crabgrass (crabgrass; [10]) | Plant response rating, Crabgrass (crabgrass; [11]) | Crabgrass plant response rating (crabgrass; [12]) | Crabgrass plant response rating (crabgrass; [6])
